# Assay results reported in PubChem BioAssay (NCI).
#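 Protocol summary: plate cells (96-well), add compound at 5 concentrations, incubate 48 h, interpolate endpoints linearly. GI50 marks 50% less growth. TGI: concentration producing complete growth inhibition.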
# Key:
# Assay in all cases: growth of human tumour cells (NCI), 48 h
# [1] = system: SF-539 CNS
# [2] = system: HCT-15 colon
# [3] = system: MDA-MB-231 breast
# [4] = system: T-47D breast
# [5] = system: RXF 393 renal
# [6] = system: SF-268 CNS
# [7] = system: MOLT-4 leukemia
# [8] = system: BT-549 breast
# [9] = system: UACC-62 melanoma
# [10] = system: MCF7 breast
# [11] = system: OVCAR-3 ovarian
# [12] = system: DU-145 prostate
# [13] = system: MDA-MB-468 breast
# [14] = system: SW-620 colon
# [15] = system: MDA-MB-435
# [16] = system: SK-MEL-5 melanoma
# [17] = system: CAKI-1 renal
# [18] = system: HCC-2998 colon
# [19] = system: NCI-H522 lung
# [20] = system: M14 melanoma
# [21] = system: OVCAR-4 ovarian
# [22] = system: NCI-H226 lung
# [23] = system: HL-60(TB) leukemia
# [24] = system: OVCAR-8 ovarian
# [25] = system: CCRF-CEM leukemia
# [26] = system: NCI/ADR-RES ovarian
# [27] = system: MALME-3M melanoma
# [28] = system: ACHN renal
# [29] = system: SK-OV-3 ovarian
# [30] = system: NCI-H460 lung
# [31] = system: A498 renal
# [32] = system: SK-MEL-28 melanoma
# [33] = system: SNB-75 CNS
# [34] = system: SK-MEL-2 melanoma
# [35] = system: SR leukemia
# [36] = system: NCI-H23 lung
# [37] = system: HS 578T breast
# [38] = system: K-562 leukemia
# [39] = system: COLO 205 colon
# [40] = system: UO-31 renal
# [41] = system: A549 NSCLC
# [42] = system: SN12C renal
# [43] = system: KM12 colon
# [44] = system: IGROV1 ovarian
# [45] = system: TK-10 renal
# [46] = system: U251 CNS
# [47] = system: 786-0 renal
# [48] = system: HOP-62 NSCLC
# [49] = system: HT29 colon
# [50] = system: HOP-92 NSCLC
# [51] = system: EKVX NSCLC
# [52] = system: PC-3 prostate
# [53] = system: SF-295 CNS
# [54] = system: SNB-19 CNS
# [55] = system: RPMI-8226 leukemia
# [56] = system: UACC-257 melanoma
# [57] = system: LOX IMVI melanoma
# [58] = system: OVCAR-5 ovarian
# [59] = system: HCT-116 colon
smiles,measurement,setting,value
CN1CCN(c2ccc(Nc3nc(NCCCNC(=O)c4ccc(F)cc4)c4sccc4n3)cc2)CC1,GI50,[1],1.69 µM
same,TGI,[1],3.16 µM
same,GI50,[2],2.31 µM
same,TGI,[2],8.13 µM
same,GI50,[3],4.15 µM
same,TGI,[3],14.5 µM
same,GI50,[4],2.64 µM
same,TGI,[4],13.7 µM
same,GI50,[5],1.45 µM
same,TGI,[5],3.25 µM
same,GI50,[6],4.38 µM
same,TGI,[6],22.4 µM
same,GI50,[7],1.67 µM
same,TGI,[7],5.38 µM
same,GI50,[8],4.39 µM
same,TGI,[8],16.7 µM
same,GI50,[9],2.04 µM
same,TGI,[9],4.58 µM
same,GI50,[10],2.67 µM
same,TGI,[10],11.1 µM
same,GI50,[11],3.52 µM
same,TGI,[11],13.3 µM
same,GI50,[12],7.65 µM
same,TGI,[12],21 µM
same,GI50,[13],1.46 µM
same,TGI,[13],4.82 µM
same,GI50,[14],3.04 µM
same,TGI,[14],10.2 µM
same,GI50,[15],4.3 µM
same,TGI,[15],16.1 µM
same,GI50,[16],2.08 µM
same,TGI,[16],4.95 µM
same,GI50,[17],3.43 µM
same,TGI,[17],15.2 µM
same,GI50,[18],3.38 µM
same,TGI,[18],11.9 µM
same,GI50,[19],1.77 µM
same,TGI,[19],3.92 µM
same,GI50,[20],1.83 µM
same,TGI,[20],3.59 µM
same,GI50,[21],5.84 µM
same,TGI,[21],29.5 µM
same,GI50,[22],11.3 µM
same,TGI,[22],23.9 µM
same,GI50,[23],1.52 µM
same,TGI,[23],3.39 µM
same,GI50,[24],4.14 µM
same,TGI,[24],51.2 µM
same,GI50,[25],1.92 µM
same,TGI,[25],4.99 µM
same,GI50,[26],4.18 µM
same,TGI,[26],24.9 µM
same,GI50,[27],1.79 µM
same,TGI,[27],3.2 µM
same,GI50,[28],3.04 µM
same,TGI,[28],13.2 µM
same,GI50,[29],16.5 µM
same,TGI,[29],34.1 µM
same,GI50,[30],3.25 µM
same,TGI,[30],12.8 µM
same,GI50,[31],18.8 µM
same,TGI,[31],32.8 µM
same,GI50,[32],1.77 µM
same,TGI,[32],3.45 µM
same,GI50,[33],7.14 µM
same,TGI,[33],21.5 µM
same,GI50,[34],14.5 µM
same,TGI,[34],28.3 µM
same,GI50,[35],1.71 µM
same,TGI,[35],4.6 µM
same,GI50,[36],10.3 µM
same,TGI,[36],24.9 µM
same,GI50,[37],6.09 µM
same,TGI,[37],32.2 µM
same,GI50,[38],1.41 µM
same,TGI,[38],4.72 µM
same,GI50,[39],5.29 µM
same,TGI,[39],20.5 µM
same,GI50,[40],11.7 µM
same,TGI,[40],23.9 µM
same,GI50,[41],4.77 µM
same,TGI,[41],22.2 µM
same,GI50,[42],10.5 µM
same,TGI,[42],23.3 µM
same,GI50,[43],4.32 µM
same,TGI,[43],18.2 µM
same,GI50,[44],5.98 µM
same,TGI,[44],19.9 µM
same,GI50,[45],5.55 µM
same,TGI,[45],17.7 µM
same,GI50,[46],3.01 µM
same,TGI,[46],10.5 µM
same,GI50,[47],1.91 µM
same,TGI,[47],5.45 µM
same,GI50,[48],16.4 µM
same,TGI,[48],35.7 µM
same,GI50,[49],2.46 µM
same,TGI,[49],7.78 µM
same,GI50,[50],7.45 µM
same,TGI,[50],28.2 µM
same,GI50,[51],12.4 µM
same,TGI,[51],25.5 µM
same,GI50,[52],3.19 µM
same,TGI,[52],16.6 µM
same,GI50,[53],1.83 µM
same,TGI,[53],4.2 µM
same,GI50,[54],7.97 µM
same,TGI,[54],20.6 µM
same,GI50,[55],1.79 µM
same,TGI,[55],4.25 µM
same,GI50,[56],2.14 µM
same,TGI,[56],4.94 µM
same,GI50,[57],1.67 µM
same,TGI,[57],3.31 µM
same,GI50,[58],11.7 µM
same,TGI,[58],26 µM
COc1cccc(/C=C/c2nc3ccccc3c(=O)n2CC(=O)Nc2ccccc2)c1,GI50,[1],7.51 µM
same,TGI,[1],28.5 µM
same,GI50,[2],39.9 µM
same,TGI,[2],> 100 µM
same,GI50,[3],5.97 µM
same,TGI,[3],20.7 µM
same,GI50,[4],2.76 µM
same,TGI,[4],18.6 µM
same,GI50,[5],4.23 µM
same,TGI,[5],50.9 µM
same,GI50,[6],36.8 µM
same,TGI,[6],> 100 µM
same,GI50,[7],> 100 µM
same,TGI,[7],> 100 µM
same,GI50,[8],> 100 µM
same,TGI,[8],> 100 µM
same,GI50,[9],88.5 µM
same,TGI,[9],> 100 µM
same,GI50,[10],27 µM
same,TGI,[10],> 100 µM
same,GI50,[11],17.6 µM
same,TGI,[11],> 100 µM
same,GI50,[12],> 100 µM
same,TGI,[12],> 100 µM
same,GI50,[13],9.17 µM
same,TGI,[13],> 100 µM
same,GI50,[14],> 100 µM
same,TGI,[14],> 100 µM
same,GI50,[15],> 100 µM
same,TGI,[15],> 100 µM
same,GI50,[16],59.3 µM
same,TGI,[16],> 100 µM
same,GI50,[17],4.31 µM
same,TGI,[17],30.1 µM
same,GI50,[18],> 100 µM
same,TGI,[18],> 100 µM
same,GI50,[19],31.6 µM
same,TGI,[19],> 100 µM
same,GI50,[20],12.5 µM
same,TGI,[20],56.6 µM
same,GI50,[21],6.87 µM
same,TGI,[21],> 100 µM
same,GI50,[22],3.22 µM
same,TGI,[22],15.2 µM
same,GI50,[23],> 100 µM
same,TGI,[23],> 100 µM
same,GI50,[24],18.8 µM
same,TGI,[24],> 100 µM
same,GI50,[25],> 100 µM
same,TGI,[25],> 100 µM
same,GI50,[26],7.72 µM
same,TGI,[26],64.9 µM
same,GI50,[27],12.1 µM
same,TGI,[27],65.7 µM
same,GI50,[28],3.47 µM
same,TGI,[28],12.5 µM
same,GI50,[29],5.87 µM
same,TGI,[29],40.9 µM
same,GI50,[30],12.6 µM
same,TGI,[30],> 100 µM
same,GI50,[31],3.2 µM
same,TGI,[31],14.5 µM
same,GI50,[32],61.4 µM
same,TGI,[32],> 100 µM
same,GI50,[33],3.15 µM
same,TGI,[33],18.1 µM
same,GI50,[34],> 100 µM
same,TGI,[34],> 100 µM
same,GI50,[35],> 100 µM
same,TGI,[35],> 100 µM
same,GI50,[36],8.91 µM
same,TGI,[36],49.3 µM
same,GI50,[37],5.91 µM
same,TGI,[37],> 100 µM
same,GI50,[38],> 100 µM
same,TGI,[38],> 100 µM
same,GI50,[39],> 100 µM
same,TGI,[39],> 100 µM
same,GI50,[40],2.89 µM
same,TGI,[40],14.1 µM
same,GI50,[41],3.81 µM
same,TGI,[41],> 100 µM
same,GI50,[42],6.58 µM
same,TGI,[42],> 100 µM
same,GI50,[43],> 100 µM
same,TGI,[43],> 100 µM
same,GI50,[44],39.1 µM
same,TGI,[44],> 100 µM
same,GI50,[45],9.51 µM
same,TGI,[45],30 µM
same,GI50,[46],4.87 µM
same,TGI,[46],19 µM
same,GI50,[59],5.48 µM
same,TGI,[59],56 µM
same,GI50,[47],3.08 µM
same,TGI,[47],12.6 µM
same,GI50,[48],3.89 µM
same,TGI,[48],14.4 µM
same,GI50,[49],> 100 µM
same,TGI,[49],> 100 µM
same,GI50,[50],11 µM
same,TGI,[50],51.3 µM
same,GI50,[51],> 100 µM
same,TGI,[51],> 100 µM
same,GI50,[52],> 100 µM
same,TGI,[52],> 100 µM
same,GI50,[53],5.23 µM
same,TGI,[53],28.6 µM
same,GI50,[54],21.7 µM
same,TGI,[54],> 100 µM
same,GI50,[55],> 100 µM
same,TGI,[55],> 100 µM
same,GI50,[56],> 100 µM
same,TGI,[56],> 100 µM
same,GI50,[57],5.94 µM
same,TGI,[57],> 100 µM
same,GI50,[58],19.3 µM
same,TGI,[58],> 100 µM
